Source: US6576642B2, “Diamide compounds and compositions containing the same” (Kowa Co., Ltd., priority 1996, dated 2003)

Test system: production of IgE antibody
Experiment: Evaluation of inhibitory effect on production of IgE antibody (mouse spleen B cells cultured with LPS and IL-4, IgE in supernatant by ELISA)
Format: cell-based
Conditions: test agent at 10^-5 M; mouse (Balb/C) B cells, LPS + mouse IL-4, IgE in culture supernatant by ELISA
Protocol: Evaluation of inhibitory effect on production of IgE antibody:
A spleen was enucleated from a mouse (Balb/C, male, aged 8 weeks) and shredded in 0.3% BSA/HBSS to prepare single cells by means of a 200-mesh screen. Further, the single cells were hemolyzed by 0.75% ammonium chloride-17 mM Tris solution to prepare a splenocyte suspension (1×10^7/ml) using RPMI 1640 medium/25 mM HEPES/0.3% BSA. After the suspension was reacted with a mouse anti-mouse Thy-1.2 monoclonal antibody (product of Cedarlane Co.) at 4° C. for 1 hour, the reaction mixture was centrifuged, and the sediment cells were suspended again (1×10^7/ml, RPMI/HEPES/BSA). After the suspension was then reacted with a low-cytotoxic rabbit complement (product of Cedarlane Co.) at 37° C. for 1 hour, killed cells were removed by specific gravity centrifugation using lympholyte M (product of Cedarlane Co.) to obtain a B cell fraction as viable cells.
After B cells (10^5/0.2 ml/well) were cultured for a day together with LPS (E. coli 026:B6, product of DIFCO Co.) using a 96-well plate, mouse IL-4 (product of Genzyme Co.) was added to conduct culture further for 7 days.
Each test was added on the first day of the culture, and the amount of IgE in a culture supernatant was meausred by ELISA after the culture, thereby calculating out the inhibitory effect of the agent on the production of an IgE antibody.

Point of comparison: `COc1cc(/C=C/C=C/C(=O)N(C)CCCCCCN(C)C(=O)/C=C/C=C/c2cc(OC)c(OC)c(OC)c2)cc(OC)c1OC` [Example 5, N,N′-bis[5-(3,4,5-trimethoxyphenyl)-penta-(2E,4E)-dienoyl]-N,N′-dimethyl-1,6-diaminohexane], “Inhibitory effect on production of IgE (%)” value 90%. Against it:
- COc1cc(/C=C/C=C/C(=O)Nc2ccccc2NC(=O)/C=C/C=C/c2cc(OC)c(OC)c(OC)c2)cc(OC)c1OC [Example 26, N,N′-bis[5-(3,4,5-trimethoxyphenyl)-penta-(2E,4E)-dienoyl]-1,2-diaminobenzene] — lower, 85%
- COc1cc(/C=C/C=C/C(=O)N[C@@H]2CCCC[C@H]2NC(=O)/C=C/C=C/c2cc(OC)c(OC)c(OC)c2)cc(OC)c1OC (relative stereo) [Example 15, trans-N,N′-bis[5-(3,4,5-trimethoxy-phenyl)penta-(2E,4E)-dienoyl]-1,2-diaminocyclohexane] — higher, 100%
- COc1cc(/C=C/C=C/C(=O)Nc2cccnc2NC(=O)/C=C/C=C/c2cc(OC)c(OC)c(OC)c2)cc(OC)c1OC [Example 38, 2,3-bis[5-(3,4,5-trimethoxyphenyl)-penta-(2E,4E)-dienoylamino]pyridine] — lower, 80%
- COc1cc(/C=C/C=C/C(=O)NCc2ccc(CNC(=O)/C=C/C=C/c3cc(OC)c(OC)c(OC)c3)cc2)cc(OC)c1OC [Example 22, N,N′-bis[5-(3,4,5-trimethoxyphenyl)-penta-(2E,4E)-dienoyl]-1,4-bis(aminomethyl)benzene] — the same, 90%
